Tests used:
[1] = target: T1, purified recombinant human Aggrecanase-1 (rAgg1) (Homo sapiens, UniProt O75173); assay: In vitro fluorescence screen for Aggrecanase-1 inhibitors; format: biochemical; settings: Table 1; for IC50: read-out: Agg1 IC50; for Ki: enzyme not given, column follows Agg1 IC50, read-out: Ki
T1 sequence (O75173 213-837): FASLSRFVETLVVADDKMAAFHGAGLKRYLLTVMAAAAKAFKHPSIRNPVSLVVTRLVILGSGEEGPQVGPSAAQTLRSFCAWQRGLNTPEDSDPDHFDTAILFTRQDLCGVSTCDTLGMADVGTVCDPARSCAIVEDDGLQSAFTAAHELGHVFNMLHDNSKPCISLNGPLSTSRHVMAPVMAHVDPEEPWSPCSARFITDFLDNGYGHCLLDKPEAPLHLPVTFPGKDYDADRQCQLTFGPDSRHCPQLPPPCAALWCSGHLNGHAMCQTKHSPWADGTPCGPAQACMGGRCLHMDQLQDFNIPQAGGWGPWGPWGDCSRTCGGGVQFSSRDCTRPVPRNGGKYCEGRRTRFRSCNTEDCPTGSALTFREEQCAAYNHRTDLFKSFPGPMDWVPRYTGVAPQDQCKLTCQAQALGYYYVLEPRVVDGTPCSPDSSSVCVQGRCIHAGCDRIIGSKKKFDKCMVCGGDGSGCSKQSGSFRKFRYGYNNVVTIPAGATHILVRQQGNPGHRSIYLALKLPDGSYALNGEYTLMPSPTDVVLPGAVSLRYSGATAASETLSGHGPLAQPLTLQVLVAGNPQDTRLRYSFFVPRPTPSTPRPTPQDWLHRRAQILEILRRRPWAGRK

[2] = target: T2, purified recombinant human Aggrecanase-2 (Ag2t-Phe628-Strep) (Homo sapiens, UniProt Q9UNA0); assay: In vitro fluorescence screen for Aggrecanase-2 inhibitors; format: biochemical; settings: Table 1; read-out: Agg 2 IC50
T2 construct: the form used is denoted as Ag2t-Phe628-Strep (MW=41,737)
T2 sequence (Q9UNA0 262-628): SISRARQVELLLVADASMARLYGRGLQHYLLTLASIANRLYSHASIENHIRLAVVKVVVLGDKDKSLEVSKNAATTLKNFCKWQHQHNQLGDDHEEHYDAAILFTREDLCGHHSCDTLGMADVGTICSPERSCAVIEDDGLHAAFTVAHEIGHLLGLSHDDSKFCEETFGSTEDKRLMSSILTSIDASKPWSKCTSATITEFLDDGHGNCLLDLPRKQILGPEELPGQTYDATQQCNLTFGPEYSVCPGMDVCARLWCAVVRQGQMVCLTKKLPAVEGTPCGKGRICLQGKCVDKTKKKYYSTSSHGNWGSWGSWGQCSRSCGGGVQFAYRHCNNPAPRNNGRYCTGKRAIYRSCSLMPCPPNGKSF

[3] = target: T3, recombinant human catalytic domain of MMP-13 (Homo sapiens, UniProt P45452); assay: In vitro fluorescence assay of MMP-13 activity; format: biochemical; settings: Table 1; unit inferred
T3 construct: catalytic domain of MMP-13 (165 amino acids, residues 104-268, 19 kDa)

[4] = target: T4, recombinant human catalytic domain of MMP-14 (Homo sapiens, UniProt P50281); assay: In vitro fluorescence assay of MMP-14 activity; format: biochemical; settings: Table 1; for MMP-14: unit not given; for IC50: unit inferred
T4 construct: 177 amino acids corresponding to Tyr89-Gly265 of mature human enzyme; purchased Chemicon International, Inc. CC1041

MMP-1 = target: T5, MMP-1 (Homo sapiens, UniProt P03956); assay: MMP-1 of Table 1; format: biochemical; settings: for MMP-1: unit not given; for IC50: unit inferred
T5 sequence (P03956 100-469): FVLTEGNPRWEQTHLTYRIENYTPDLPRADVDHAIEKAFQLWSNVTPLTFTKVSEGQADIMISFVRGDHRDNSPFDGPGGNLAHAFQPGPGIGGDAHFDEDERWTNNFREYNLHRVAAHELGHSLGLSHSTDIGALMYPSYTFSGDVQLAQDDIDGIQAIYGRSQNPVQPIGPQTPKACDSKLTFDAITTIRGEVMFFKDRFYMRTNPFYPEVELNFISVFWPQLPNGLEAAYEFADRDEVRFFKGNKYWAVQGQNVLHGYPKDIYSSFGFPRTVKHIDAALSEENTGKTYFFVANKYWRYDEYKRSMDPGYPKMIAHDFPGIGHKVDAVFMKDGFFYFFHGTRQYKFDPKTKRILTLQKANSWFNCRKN

recombinant human MMP-2 = target: T6, recombinant human MMP-2 (Homo sapiens, UniProt P08253); assay: In vitro fluorescence assay of MMP-2 activity
T6 sequence (P08253 110-660): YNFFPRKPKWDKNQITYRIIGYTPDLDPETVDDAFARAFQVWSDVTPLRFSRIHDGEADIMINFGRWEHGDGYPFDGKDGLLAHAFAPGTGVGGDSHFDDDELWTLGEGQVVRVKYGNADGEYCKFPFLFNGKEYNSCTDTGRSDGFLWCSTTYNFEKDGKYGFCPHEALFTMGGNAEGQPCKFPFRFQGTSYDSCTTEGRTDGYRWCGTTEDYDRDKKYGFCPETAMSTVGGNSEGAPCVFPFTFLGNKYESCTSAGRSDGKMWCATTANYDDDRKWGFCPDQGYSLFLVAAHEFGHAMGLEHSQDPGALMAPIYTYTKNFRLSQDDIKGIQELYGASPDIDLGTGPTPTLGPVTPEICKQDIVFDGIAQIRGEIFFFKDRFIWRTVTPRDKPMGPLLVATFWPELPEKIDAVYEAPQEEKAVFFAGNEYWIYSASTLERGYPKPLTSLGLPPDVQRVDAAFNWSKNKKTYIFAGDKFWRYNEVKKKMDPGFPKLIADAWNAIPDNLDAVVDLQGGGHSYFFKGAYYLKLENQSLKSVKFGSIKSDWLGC

[5] = tested on: bovine articular cartilage treated with Interleukin 1 alpha (IL-1α); assay: Bovine articular cartilage explant cultures: inhibition of degradation of proteoglycan; format: cell-based; settings: inhibitory effect expressed as percentage, concentration not printed
Source text: This in vitro procedure was used to evaluate the effect and relative potencies of small molecule compounds to inhibit the degradation of proteoglycan in articular cartilage treated with Interleukin 1 alpha (IL-1α). Treatment of articular cartilage with IL 1α induces expression of a cascade of enzymes that initiates cartilage matrix degradation. This assay was utilized to select small molecule compounds that inhibit the enzyme activity and protects cartilage matrix degradation.
Articular cartilage: bovine metacarpal joints were disinfected with 10% Wescodyne followed by 70% ethanol. 6 mm articular cartilage discs were prepared and rinsed once in PBS and medium, respectively. The discs were cultured in a stirring flask with serum-free medium for 5 days for equilibrium with one medium change. Small molecule compounds: stock solutions of test small molecule compounds (usually at 5 mg/ml) were prepared in DMSO. Working solutions were diluted with DMSO and generally ranged from 0.1 μg/ml to 10 ug/ml. The DMSO stocks were stored at […]. Articular cartilage explant culture medium: DMEM, 2 mM glutamax, 100 U/ml of antibiotic and antimycotic, 50 μg/ml ascorbate and 10 mM Hepes (pH-7.0). Proteoglycan content-Dimethyl methylene blue (DMMB) solution: […] DMMB, 10 ml 100% ethanol, 29.5 ml of 1M NaOH, 3.5 ml of 98% formic acid and water to 1 L. Chondroitin sulphate sodium salt: 1.56-200 ug/ml serial dilutions.
For the explant culture, cartilage discs were cultured in serum-free medium for 48 h or more. Discs were weighed and transferred to a 96-well plate, 1 disc per-well. 0.2 ml of medium containing 5 ng/ml of IL-1 and different concentrations of compounds were added to each well, with 3 wells allocated for each treatment. The medium was collected at days 1, 2, & 3 and replaced accordingly.
For the DMMB assay, conditioned medium (CM) samples were diluted with medium. 10 ul of each standard or diluted sample was added in duplicate into a 96-well-plate and 200 μl of DMMB solution was added into each well. Absorbance at 520 nm was measured for each well. Proteoglycan contents in CM were calculated daily.
The proteoglycan contents are expressed as ug per mg of cartilage. The inhibitory effect of the compounds is expressed as percentage. (See, Tortorella, M. D. et al., Science 1999, 284, 1664-1666).

[6] = Table 1, first of two columns headed bovine
[7] = Table 1, second of two columns headed bovine

IC50 [1] [nM]	IC50 [2] [nM]	IC50 [3] [nM]	MMP-14 [4]	MMP-1 (MMP-1)	IC50 (recombinant human MMP-2) [nM]	IC50 [4] [nM]	IC50 (MMP-1) [nM]	Ki [1] [nM]	Structure (SMILES)	bovine [5, 6] [%]	bovine [5, 7] [%]
30	160	> 50000	no inh	no inh	18600	–	–	–	CC(C)(Cc1ccc(F)cc1)NC(=O)C(CCC(=O)O)NC(=O)c1ccc(-c2ccccc2)cc1 (racemic) [Example 8GGGG, N^2-(biphenyl-4-ylcarbonyl)-N^1-[2-(4-fluorophenyl)-1,1-dimethylethyl]-α-glutamine]	–	–
150	740	> 50000	–	–	29800	> 200000	> 50000	–	O=C(O)CC[C@H](NC(=O)c1ccc(-c2ccccc2)cc1)C(=O)NC1Cc2ccccc2C1 [Example 6A, N^2-(1,1′-biphenyl-4-ylcarbonyl)-N^1-2,3-dihydro-1H-inden-2-yl-L-α-glutamine]	–	–
74	650	19000	–	no inh	2300	~25000	–	–	O=C(O)CC[C@H](NC(=O)c1ccc(-c2ccccc2)cc1)C(=O)NCc1ccc(Cl)c(Cl)c1 [Example 8BB, N^2-(1,1′-biphenyl-4-ylcarbonyl)-N^1-(3,4-dichlorobenzyl)-L-α-glutamine]	–	–
32	700	> 50000	no inh	–	–	–	> 200000	130	CCC(C)NC(=O)[C@H](CCC(=O)O)NC(=O)c1ccc(-c2ccccc2)cc1 (stereo partly drawn) [Example 8BBB, N^2-(1,1′-biphenyl-4-ylcarbonyl)-N^1-(sec-butyl)-L-α-glutamine]	35	0
55	990	24000	–	–	50000	–	–	–	O=C(O)CC[C@H](NC(=O)c1ccc(-c2ccccc2)cc1)C(=O)NCc1ccc(I)cc1 [Example 8LL, N^2-(1,1′-biphenyl-4-ylcarbonyl)-N^1-(4-iodobenzyl)-L-α-glutamine]	40	0
< 30	133	~50000	no inh	–	9000	–	> 200000	14	CC(C)(Cc1ccc(Cl)cc1)NC(=O)[C@H](CCC(=O)O)NC(=O)c1ccc(-c2ccccc2)cc1 [Example 8NN, N^2-(biphenyl-4-ylcarbonyl)-N^1-[2-(4-chlorophenyl)-1,1-dimethylethyl]-L-α-glutamine]	–	–
< 30	85	~50000	–	–	6000	> 66600	> 200000	10	CC(C)(Cc1ccccc1)NC(=O)[C@H](CCC(=O)O)NC(=O)c1ccc(-c2ccccc2)cc1 [Example 8PP, N^2-(biphenyl-4-ylcarbonyl)-N^1-(1,1-dimethyl-2-phenylethyl)-L-α-glutamine]	–	–
100	800	~50000	–	no inh	12400	> 66600	–	–	O=C(O)CC[C@H](NC(=O)c1ccc(-c2ccccc2)cc1)C(=O)NCCc1ccc(F)cc1 [Example 8SS, N^2-(biphenyl-4-ylcarbonyl)-N^1-[2-(4-fluorophenyl)ethyl]-L-α-glutamine]	–	–
64	470	> 50000	–	–	10300	–	–	–	CC(C)(C)NC(=O)[C@H](CCC(=O)O)NC(=O)c1ccc(-c2ccccc2)cc1 [Example 8SSS, N^2-(biphenyl-4-ylcarbonyl)-N^1-(tert-butyl)-L-α-glutamine]	–	–
61	660	~50000	–	no inh	8900	> 200000	–	60	CC(C)(C)CNC(=O)[C@H](CCC(=O)O)NC(=O)c1ccc(-c2ccccc2)cc1 [Example 8UUU, N^2-(biphenyl-4-ylcarbonyl)-N^1-(2,2-dimethylpropyl)-L-α-glutamine]	–	–
98	3000	~50000	–	no inh	–	> 50000	–	–	O=C(O)CC[C@H](NC(=O)c1ccc(-c2ccccc2)cc1)C(=O)NCc1cccc(-c2ccccn2)c1 [Example 10Q, N^2-(biphenyl-4-ylcarbonyl)-N^1-(3-pyridin-2-ylbenzyl)-L-α-glutamine]	–	–
< 10	25	29	–	–	–	110	1500	–	COc1cccc(CCNC(=O)[C@H](CCC(=O)NO)NC(=O)c2ccc(-c3ccccc3)cc2)c1 [Example 33C, N^2-(1,1′-biphenyl-4-ylcarbonyl)-N^5-hydroxy-N^1-[2-(3-methoxyphenyl)ethyl]-L-α-glutamamide]	–	–

Source: patent US7998965B2, “Glutamate aggrecanase inhibitors” (Wyeth LLC, priority 2005, dated 2011)
